The values that follow come from PMC4230943, “Mimicking Hypoxia to Treat Anemia: HIF-Stabilizer BAY 85-3934 (Molidustat) Stimulates Erythropoietin Production without Hypertensive Effects” (PLoS ONE, 2014).

The structures appear in SMILES notation.

Series [1] concerns broad panel of radio-ligand binding assays. In words: Broad panel of radio-ligand binding assays (n = 67). The following applies: 10 µM, n = 67 assays, data not shown. On the procedure: The selectivity of BAY 85-3934 was examined via a broad panel of radio-ligand binding assays (n = 67), and by examining the activity of BAY 85-3934 against related enzymes (matrix metalloproteinases and other peptidases, n = 8). At a concentration of 10 µM, no significant (> 50%) activity in any of these assays was detected (data not shown).

In series [2] the test system is male Wistar rats. In words: 26-day repeat-dose experiment, packed cell volume. On the procedure: Male Wistar rats (240–340 g in body weight) were housed with five animals per cage for at least 1 week before experimentation. Blood samples from rats were collected under anesthesia (2% isoflurane in air) by puncturing the retro-orbital vein plexus with a glass capillary. In a repeat-dose, 26-day experiment, animals were administered vehicle or BAY 85-3934 at doses of 0.5 mg/kg, 1.25 mg/kg, 2.5 mg/kg, and 5 mg/kg. PCV was determined at baseline and at weekly intervals after centrifugation in a hematocrit capillary tube (Brand) for 10 min at full speed in a Haemofuge centrifuge (Heraeus). The number of reticulocytes in 5 µl blood was counted after staining with thiazol orange (Becton Dickinson) according to the manufacturer’s instructions by FACS analysis on a BD FACSCalibur system (Becton Dickinson). The efficacy of BAY 85-3934 (2.5 mg/kg, once-daily, oral) was also compared with that of rhEPO (25 IU/kg, 50 IU/kg, and 100 IU/kg, twice-weekly, s.c. injection). The time-course of induction of EPO mRNA expression and plasma EPO was determined at baseline and 0.5 h, 1 h, 2 h, 4 h, 6 h, and 8 h after oral administration of a single dose of BAY 85-3934 (5 mg/kg).

The subject of the next series is female Lewis rats. Put plainly: PG-PS-induced inflammatory anemia model. Format: in vivo, rat. On the procedure:
Female Lewis rats (Harlan Laboratories), with a body weight of 155–181 g were used. Body weight, ankle diameter, hematocrit, and blood cell count were determined at baseline and thereafter at regular intervals. PG-PS from Streptococcus pyogenes (Becton Dickinson) was dissolved in sterile saline and administered via i.p. injection at 15 mg/kg. […] Two weeks after injection, animals were distributed into treatment groups in equal proportions based on their hematocrit levels. On day 15, BAY 85-3934 was given orally once daily at doses of 2.5 mg/kg and 5.0 mg/kg. At the end of the study, animals were sacrificed and kidney and liver samples were processed for qRT-PCR analysis.
Total RNA was extracted from shock-frozen cell or tissue samples using the TRIzol method. Integrity of obtained RNA was checked on a Bioanalyzer (Agilent Technologies). For reverse transcription, 1 µg of total RNA was digested with RNase-free DNase I (Gibco) for 15 min at room temperature, and then reverse-transcribed using Promiscript (Promega GmbH) in a total reaction volume of 40 µl according to the standard protocol of the supplier. After inactivation of the enzyme by heating to 65°C for 15 min, the obtained cDNA was diluted to a final volume of 150 µl with double-distilled water, and 4 µl used per PCR reaction. qRT-PCR, including normalization of raw data to cytosolic β-actin, was carried out as described previously. The resulting expression is given in arbitrary units.
Renal anemia, particularly in patients with ESRD on dialysis, is often associated with systemic inflammation and EPO resistance. The potential for BAY 85-3934 to reverse anemia was evaluated in a rodent model of protracted inflammatory anemia associated with chronic polyarthritis, induced by challenge with PG-PS [38]. The severity of the inflammatory response after PG-PS challenge was underscored by the finding that there was elevated expression of a panel of cytokines and inflammatory marker genes, several of which are known to disturb iron utilization (interleukin-1, interleukin-6, tumor necrosis factor-α, and hepcidin) and to impair proliferation and differentiation of erythroid precursors (interleukin-1 and tumor necrosis factor-α).

For series [3], the system named is male Wistar rats. In words: Subtotal nephrectomy (remnant kidney) model. Format: in vivo, rat. The conditions noted are these: same dose for 3 days, data not shown.

In the case of `O=c1c(-n2ccnn2)c[nH]n1-c1cc(N2CCOCC2)ncn1` [BAY 85-3934, 2-[6-(morpholin-4-yl)pyrimidin-4-yl]-4-(1H-1,2,3-triazol-1-yl)-1,2-dihydro-3H-pyrazol-3-one], the “activity in radio-ligand binding assays” value in series [1] is given as no more than 50%. Moreover, in the series on male Wistar rats [2] (1.25 mg/kg once daily, by day 26), the “gain in mean PCV” value is “approximately 3%”. Besides, the “mean PCV gain from baseline” value with male Wistar rats [2] (5 mg/kg once daily, 26 days) is reported as 17%. The tolerability result with male Wistar rats [2] (0.5–5 mg/kg, 26 days) was “well tolerated”. Further, the “dose from which mean PCV is significantly elevated versus vehicle” value in the series on male Wistar rats [2] (once daily oral, 26 days) is given as no less than 1.25 mg/kg. Moreover, the “mean PCV” value in the series with female Lewis rats (2.5 mg/kg once daily oral) was “halted further decline”. The “expression levels of monocyte chemotactic protein-1 and hepcidin” value in the series on female Lewis rats (5 mg/kg dose group) is “significantly reduced”. Besides, in the series on female Lewis rats (5 mg/kg once daily oral), the “mean PCV” value is recorded as “reversed mean PCV decline” and the “time after PG-PS challenge for PCV to return to normal levels” value is no more than 5 weeks. In addition, the “initial increase in white blood cell count” value in the series with female Lewis rats (data not shown) is “attenuated”. Moreover, the “kidney EPO mRNA expression” value with female Lewis rats (end of study) is recorded as “significantly larger increase”. Besides, the “course of polyarthritis (hind limb ankle diameter, body weight gain)” value with female Lewis rats (rat, in vivo) is recorded as “did not influence”. Also, in the series on male Wistar rats [3], the “blood pressure in normotensive rats” value is “did not affect blood pressure”.
